Measured values from ChEMBL document CHEMBL4483862, “Open-source discovery of chemical leads for next-generation chemoprotective antimalarials” (2018).

System: Plasmodium berghei
Assay: Luciferase/luciferin-expressing antifolate-resistant parasites were used to infect a culture of HepG2 cells that were pre-incubated with compounds. Infected hepatocytes emit light due to the luciferase reaction. Assay results are presented as the percent inhibition of light emission compared to control. […]
Type: functional
Settings: sporozoite; for IC90: read-out: LUCIFERASE INFECTION ASSAY - IC90
[1] = read-out: LUCIFERASE INFECTION ASSAY - IC50

Compound	IC50 [1] [µM]	IC90 [µM]	other results
CCN1CCc2nc(NC(=O)c3nc(-c4cccs4)n(-c4ccc(F)cc4)n3)sc2C1	> 10	> 10	–
CNc1ccc2ncc(-c3ccc(OC)nc3)n2n1	–	12.8	IC50 (HEPG2TOX_HILL_SLOPE 1.61, HEPG2TOX_R_SQUARED 0.963, PBLUC_HILL_SLOPE 2.26, PBLUC_R_SQUARED 0.378, read-out: LUCIFERASE INFECTION ASSAY - IC50): 4.85 µM
CC(C)c1ccc(N2C(=O)/C(=C\c3ccccc3OCc3ccccn3)NC2=S)cc1	–	3.92	IC50 (HEPG2TOX_HILL_SLOPE 3.89, HEPG2TOX_R_SQUARED 0.964, PBLUC_HILL_SLOPE 2.57, PBLUC_R_SQUARED 0.661, read-out: LUCIFERASE INFECTION ASSAY - IC50): 1.67 µM
C/N=c1\scc(-c2ccc3c(c2)NC(=O)CO3)n1/N=C/c1cc(Br)c(O)c(OC)c1	–	7.81	IC50 (HEPG2TOX_HILL_SLOPE 8.72, HEPG2TOX_R_SQUARED 0.934, PBLUC_HILL_SLOPE 4.3, PBLUC_R_SQUARED 0.314, read-out: LUCIFERASE INFECTION ASSAY - IC50): 4.68 µM
Cc1ccc(-c2ccccc2C(=O)OCC(=O)Nc2ccc(C)c(Cl)c2)cc1	–	> 10	IC50 (FFLUC_HILL_SLOPE 49.8, FFLUC_R_SQUARED 0.336, read-out: LUCIFERASE INFECTION ASSAY - IC50): > 10 µM
COc1ccc(C(=O)N2CCN(C(c3ccc(F)cc3)c3ccc(F)cc3)CC2)cc1S(=O)(=O)NCCN(C)C	> 10	> 10	–
CCn1c2ccccc2c2cc(/C=C(/C(=O)c3ccccc3)c3nc4ccccc4[nH]3)ccc21	9.13	> 10	–
CCNC(=O)c1nn(Cc2ccccc2)c2c1CC(NCC(C)C)CC2 (stereo unspecified)	–	> 9.31	IC50 (PBLUC_HILL_SLOPE 1.56, PBLUC_R_SQUARED 0.224, read-out: LUCIFERASE INFECTION ASSAY - IC50): 6.64 µM
Cc1cc(C(C)(C)C)cc(C(C)(C)C)[s+]1	–	7.78	IC50 (HEPG2TOX_HILL_SLOPE 3.48, HEPG2TOX_R_SQUARED 0.99, PBLUC_HILL_SLOPE 2.71, PBLUC_R_SQUARED 0.511, read-out: LUCIFERASE INFECTION ASSAY - IC50): 3.46 µM
CN(C)c1cccc(Nc2nccc3[nH]c(-c4cccc(F)c4)cc23)c1	–	1.41	IC50 (HEPG2TOX_HILL_SLOPE 2.36, HEPG2TOX_R_SQUARED 0.936, PBLUC_HILL_SLOPE 7.91, PBLUC_R_SQUARED 0.783, read-out: LUCIFERASE INFECTION ASSAY - IC50): 1.07 µM
CCn1c(NC(=O)c2cccnc2Oc2ccccc2)nc2ccccc21	> 10	> 10	–
CSc1ccc(/C=C2\SC(=O)N(CCNC(=O)c3nc4nccc(C)n4n3)C2=O)cc1	> 10	> 10	–
N#CC(C#N)=NNc1ccc(F)c(F)c1F	–	14.5	IC50 (PBLUC_HILL_SLOPE 9.99, PBLUC_R_SQUARED 0.46, read-out: LUCIFERASE INFECTION ASSAY - IC50): 11.6 µM
Cc1cc(C(=O)COC(=O)c2[nH]nc3ccccc23)c(C)n1CC1CCCO1 (stereo unspecified)	0.417	0.491	–
COc1ccccc1CNC(=O)CN1CCN(c2cc(C)nc(C(C)C)n2)CC1	> 10	> 10	–
c1ccn2c(Sc3ncnc4sc5c(c34)CCC5)nnc2c1	–	> 10	IC50 (PBLUC_HILL_SLOPE 2.99, PBLUC_R_SQUARED 0.206, read-out: LUCIFERASE INFECTION ASSAY - IC50): 4.93 µM
CN(C)C(=O)c1ccc(-c2cc3c(Nc4cccc(N(C)C)c4)nccc3n2C)cc1	> 10	> 10	–
CC(=O)c1ccc(-c2ccc(C(=O)Nc3nc(-c4ccccn4)cs3)o2)cc1	–	7.29	IC50 (HEPG2TOX_HILL_SLOPE 2.67, HEPG2TOX_R_SQUARED 0.908, PBLUC_HILL_SLOPE 30.3, PBLUC_R_SQUARED 0.327, read-out: LUCIFERASE INFECTION ASSAY - IC50): 6.78 µM
Nc1cccc(-c2ccc3ncc(-c4cccc(C(F)(F)F)c4)n3n2)c1	1.48	2.09	–
CC(OC(=O)CCc1nc2cc(Cl)ccc2n(Cc2ccccc2)c1=O)C(=O)N1CCCC1 (stereo unspecified)	–	5	IC50 (PBLUC_HILL_SLOPE 7.3, PBLUC_R_SQUARED 0.693, read-out: LUCIFERASE INFECTION ASSAY - IC50): 3.7 µM
O=C(Nc1ncccc1O)c1ccc(S(=O)(=O)NCc2ccco2)cc1	–	> 10	IC50 (PBLUC_HILL_SLOPE 0.839, PBLUC_R_SQUARED 0.334, read-out: LUCIFERASE INFECTION ASSAY - IC50): 1.04 µM
CN1CCN(c2ccc(CNc3ccc4ncc(-c5ccc(OC(F)(F)F)cc5)n4n3)cc2)CC1	–	6.12	IC50 (HEPG2TOX_HILL_SLOPE 14.3, HEPG2TOX_R_SQUARED 0.469, PBLUC_HILL_SLOPE 4.14, PBLUC_R_SQUARED 0.775, read-out: LUCIFERASE INFECTION ASSAY - IC50): 3.6 µM

Compound	IC50 [1] [µM]	IC90 [µM]	other results
CS(=O)(=O)c1ccc(Nc2cc3[nH]c(-c4cccc(C(F)(F)F)c4)cc3cn2)cc1	–	9.79	IC50 (PBLUC_HILL_SLOPE 3.36, PBLUC_R_SQUARED 0.528, read-out: LUCIFERASE INFECTION ASSAY - IC50): 5.09 µM
Clc1ccc(N/N=C/Cc2nnnn2-c2ccccc2)cc1	–	> 10.6	IC50 (PBLUC_HILL_SLOPE 11.7, PBLUC_R_SQUARED 0.117, read-out: LUCIFERASE INFECTION ASSAY - IC50): 10.1 µM
CCOc1ccc(S(=O)(=O)Nc2cc3c(C(=O)OC(C)C)c(C)oc3c3ccccc23)cc1	–	2.86	IC50 (HEPG2TOX_HILL_SLOPE 2.94, HEPG2TOX_R_SQUARED 0.937, PBLUC_HILL_SLOPE 3.2, PBLUC_R_SQUARED 0.642, read-out: LUCIFERASE INFECTION ASSAY - IC50): 1.44 µM
CN(C)c1ccc(-c2cnc3cnc(-c4ccc(CNc5ccccc5)cc4)cn23)cc1	–	> 7.87	IC50 (PBLUC_HILL_SLOPE 1.8, PBLUC_R_SQUARED 0.529, read-out: LUCIFERASE INFECTION ASSAY - IC50): 4.22 µM
COc1cc(NC(=O)c2ccc([N+](=O)[O-])o2)cc(C(F)(F)F)c1	> 9.99	> 9.99	–
CCOC(=O)c1ccc(OC(C)C(=O)NC2CCCC(C)C2C)cc1 (stereo unspecified)	> 10	> 10	–
Cc1cc(C(C)(C)C)cc(C)c1C[n+]1c2n(c3ccc(C(F)(F)F)cc31)CCCCC2	–	2.85	IC50 (HEPG2TOX_HILL_SLOPE 3.95, HEPG2TOX_R_SQUARED 0.938, PBLUC_HILL_SLOPE 4.2, PBLUC_R_SQUARED 0.767, read-out: LUCIFERASE INFECTION ASSAY - IC50): 1.69 µM
COC(=O)c1cc(NC(=O)Nc2cc(Cl)cc(Cl)c2)ccc1N1CCOCC1	–	4.16	IC50 (PBLUC_HILL_SLOPE 7.3, PBLUC_R_SQUARED 0.704, read-out: LUCIFERASE INFECTION ASSAY - IC50): 3.08 µM
CCOC(=O)c1c(-c2ccccc2)oc2ccc(OCC(O)CNCCN(C)C)cc12 (stereo unspecified)	–	> 10	IC50 (PBLUC_HILL_SLOPE 9.38, PBLUC_R_SQUARED 0.614, read-out: LUCIFERASE INFECTION ASSAY - IC50): 8.91 µM
O=C(O)c1cccc2cccc([S+]([O-])c3ccccc3CO)c12 (stereo unspecified)	–	> 10.1	IC50 (FFLUC_HILL_SLOPE 17.8, FFLUC_R_SQUARED 0.335, read-out: LUCIFERASE INFECTION ASSAY - IC50): > 10.1 µM
CCN(CC)CCn1c(NC(=O)c2cnc3c(cnn3C(C)C)c2)nc2ccccc21	–	6.55	IC50 (PBLUC_HILL_SLOPE 2.78, PBLUC_R_SQUARED 0.504, read-out: LUCIFERASE INFECTION ASSAY - IC50): 2.97 µM
Nc1nc2ccccc2n1Cc1ccc(Cl)cc1	–	5.46	IC50 (HEPG2TOX_HILL_SLOPE 1, HEPG2TOX_R_SQUARED 0.963, PBLUC_HILL_SLOPE 11.6, PBLUC_R_SQUARED 0.65, read-out: LUCIFERASE INFECTION ASSAY - IC50): 4.52 µM
Cc1csc(NC(=O)c2ccc3[nH]c4c(c3c2)CC(C)CC4)n1 (stereo unspecified)	–	> 10	IC50 (PBLUC_HILL_SLOPE 21.4, PBLUC_R_SQUARED 0.315, read-out: LUCIFERASE INFECTION ASSAY - IC50): 9.45 µM
Cn1ccc2cc(-c3cn4c(-c5ccc(C(=O)NC6CC6)cc5)cnc4cn3)ccc21	2.7	3.32	–
COc1ccc(N2CCN(CCCNc3ncnc4cc(Cl)ccc34)CC2)cc1	–	3.54	IC50 (HEPG2TOX_HILL_SLOPE 6.44, HEPG2TOX_R_SQUARED 0.109, PBLUC_HILL_SLOPE 114, 20.9, PBLUC_R_SQUARED 0.138, 0.588, read-out: LUCIFERASE INFECTION ASSAY - IC50): 3.33 µM
COc1ccc(Oc2sccc2[N+](=O)[O-])cc1	–	> 13.1	IC50 (FFLUC_HILL_SLOPE 0.766, FFLUC_R_SQUARED 0.0624, read-out: LUCIFERASE INFECTION ASSAY - IC50): > 13.1 µM
COc1ccc2nc3cc(Cl)ccc3c(N(C)CCc3ccc(OC)c(OC)c3)c2c1	–	0.33	IC50 (PBLUC_HILL_SLOPE 4.42, PBLUC_R_SQUARED 0.447, read-out: LUCIFERASE INFECTION ASSAY - IC50): 0.201 µM
COCCN1C(=O)N(Cc2cccc(OC)c2)C(=O)C12CCN(C1CCc3ccccc3C1)CC2 (stereo unspecified)	–	> 6.91	IC50 (PBLUC_HILL_SLOPE 3.06, PBLUC_R_SQUARED 0.614, read-out: LUCIFERASE INFECTION ASSAY - IC50): 4.45 µM
Oc1ccccc1-c1cc(-c2ccccc2)nn1Cc1ccccc1	–	3.93	IC50 (PBLUC_HILL_SLOPE 14.4, PBLUC_R_SQUARED 0.373, read-out: LUCIFERASE INFECTION ASSAY - IC50): 3.37 µM
NC(=O)c1cccc(-c2cn3c(-c4ccccc4)cnc3cn2)c1	–	> 10.5	IC50 (HEPG2TOX_HILL_SLOPE 0.15, HEPG2TOX_R_SQUARED 0.654, PBLUC_HILL_SLOPE 0.762, PBLUC_R_SQUARED 0.254, read-out: LUCIFERASE INFECTION ASSAY - IC50): > 10.5 µM
Cc1ccc(-c2csc(NC(=O)CSc3nc4ccccc4c(=O)n3CCCN(C)C)n2)cc1	> 10	> 10	–
